This note sets out measurements from article PMC7697705, “Design, Synthesis and Biological Evaluation of (2′,5′ and 3′5′-Linked) cGAMP Analogs that Activate Stimulator of Interferon Genes (STING)” (Molecules, 2020).

Like-named read-outs stand apart in the source and are kept apart here.

One assay concerns the target T1, human STING (Homo sapiens, UniProt Q86WV6).
T1 construct: N-terminal cysteine (thiol coupling handle)
Put plainly: surface plasmon resonance (SPR)-based hSTING binding assay. The settings on record: for kon: read-out: Ka; for Kd: KD = Kd/Ka. The text has this: Direct measurement of affinity constants provide assistance in pharmacokinetic and pharmacodynamic studies. In this study, we evaluated the binding affinities between human STING and the synthesized CNDs by the surface plasmon resonance (SPR)-based assay, which loaded minuscule amounts of STING protein on a biosensor chip, and free-labeled samples were directly detected in short measurement times.
hSTING was firstly immobilized on a CM5 sensor chip via a N-terminal cysteine thiol group, without altering conformation or binding activity. […] Kinetic parameters generally give both an aggregation constant (ka) and a disaggregation constant (kd), from which the equilibrium dissociation constant KD can be calculated by KD = Kd/Ka.
SPR system was primed using the manufacturer’s HEPES-buffered saline at 25 °C. CM5 chips were warmed to room temperature on the bench before being added to the system. SPR surfaces were cleaned and conditioned (separate injections of 50 mM NaOH, 1 M NaCl, 0.1% SDS and 10 mM HCl, each for 60 s at 10 μL/min) prior to normalization using the manufacturer’s 70% glycerol solution (GE Healthcare). STING was prepared at 100 μg/mL in SPR running buffer with no DMSO and injected twice onto channel 2 for 600 s at 5 μL/min.
Cyclic dinucleotides were prepared to 1-mM stocks in SPR running buffer. A 12-concentrations dilution series, including a blank containing no substrate, were made and diluted in a 96-well polypropylene Greiner plate. Plates were spun and then placed at 4 °C until experimentation. Experiments were performed at 60 μL/min with data collected every 0.1s.

The test system of the next assay is THP-1 cells. As to the kind of experiment: IFN-β production in THP-1 cells by ELISA. The settings on record: 1 μM, 18 h. (An ELISA detects its analyte on a solid surface through an enzyme-linked reagent.)
The mark [1] stands for this setting: SPR, hSTING immobilized on CM5 chip, 25 °C.

T1 sequence (Q86WV6 whole entry): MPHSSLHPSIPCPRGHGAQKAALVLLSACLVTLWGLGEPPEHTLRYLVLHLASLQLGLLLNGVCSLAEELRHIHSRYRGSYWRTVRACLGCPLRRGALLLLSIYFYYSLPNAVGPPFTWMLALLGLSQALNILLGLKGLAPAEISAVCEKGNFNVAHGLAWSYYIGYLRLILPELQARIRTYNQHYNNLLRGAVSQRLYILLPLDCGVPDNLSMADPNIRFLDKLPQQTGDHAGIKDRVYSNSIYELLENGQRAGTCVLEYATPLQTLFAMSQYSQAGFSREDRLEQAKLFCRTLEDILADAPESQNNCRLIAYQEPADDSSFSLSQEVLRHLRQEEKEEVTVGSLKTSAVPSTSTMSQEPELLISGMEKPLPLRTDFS
Protocol for THP-1 cells: The IFN-β levels in the cell culture supernatants were measured using the ELISA kits (Meimian Biotechnology, Jiangsu, China), according to the manufacturer’s instructions.

With `Cc1cn([C@@H]2O[C@@H]3COP(=O)(O)O[C@@H]4[C@H](O)[C@@H](COP(=O)(O)O[C@H]3[C@H]2O)O[C@H]4n2cnc3c(=O)[nH]c(N)nc32)c(=O)[nH]c1=O` [Compound 8a, 2′,3′-cyclic-guanosine-5-methyluridine], at human STING (setting [1]), the “dissociation rate constant koff” value came out at 0.002649 s⁻¹ and the kon stood at 349 M⁻¹ s⁻¹. On human STING (SPR), this compound registered a Kd of 7.58 µM.
For the compound `Cc1cn([C@@H]2O[C@@H]3COP(O)(=S)O[C@@H]4[C@H](O)[C@@H](COP(O)(=S)O[C@H]3[C@H]2O)O[C@H]4n2cnc3c(=O)[nH]c(N)nc32)c(=O)[nH]c1=O` (stereo partly shown) [Compound 8b, 2′,3′-cyclic-guanosine(PS)-5-methyluridine(PS)], the “production of IFN-β (ELISA)” value with THP-1 cells is reported as “more IFN-β than the corresponding phosphodiester analogs”. The “dissociation rate constant koff” value at human STING (setting [1]) is 0.0001339 s⁻¹. The kon on human STING came out at 233 M⁻¹ s⁻¹.
Consider `Cc1cn(C2OC3COP(=O)(O)OC4C(O)C(COP(=O)(O)OC3C2O)OC4n2cnc3c(=O)[nH]c(N)nc32)c(=O)nc1N` (stereo not shown) [Compound 8c, 2′,3′-cyclic-guanosine-5-methylcytidine], for which, at human STING (setting [1]), the “dissociation rate constant koff” value was 1.397e-05 s⁻¹ and the kon worked out at 152 M⁻¹ s⁻¹. Moreover, the Kd at human STING (SPR) worked out at 0.092 µM.
`Cc1cn([C@@H]2O[C@@H]3COP(=O)(O)O[C@H]4[C@@H](O)[C@H](n5cnc6c(N)ncnc65)O[C@@H]4COP(=O)(O)O[C@@H]2[C@@H]3O)c(=O)[nH]c1=O` [Compound 12a, 2′,3′-cyclic-5-methyluridine-adenosine]: at human STING (setting [1]), the “dissociation rate constant koff” value amounted to 0.002431 s⁻¹ and the kon was determined as 208 M⁻¹ s⁻¹. In addition, the Kd on human STING (SPR) was determined as 11.7 µM.
In the case of `Cc1cn([C@@H]2O[C@@H]3COP(O)(=S)O[C@H]4[C@@H](O)[C@H](n5cnc6c(N)ncnc65)O[C@@H]4COP(O)(=S)O[C@@H]2[C@@H]3O)c(=O)[nH]c1=O` (stereo partly shown) [Compound 12b, 2′,3′-cyclic-5-methyluridine(PS)-adenosine(PS)], in the assay with THP-1 cells, the “production of IFN-β (ELISA)” value is reported as “more IFN-β than the corresponding phosphodiester analogs”. Besides, at human STING (setting [1]), the “dissociation rate constant koff” value came to 0.0009865 s⁻¹ and the kon is 289 M⁻¹ s⁻¹. At human STING (SPR), this compound registered a Kd of 3.41 µM.
Take `Cc1cn([C@@H]2O[C@@H]3COP(=O)(O)O[C@H]4[C@@H](O)[C@H](n5cnc6c(N)ncnc65)O[C@@H]4COP(=O)(O)O[C@@H]2[C@@H]3O)c(=O)nc1N` [Compound 12c, 2′,3′-cyclic-5-methylcytidine-adenosine]: at human STING (setting [1]), the “dissociation rate constant koff” value was found to be 0.0007331 s⁻¹ and the kon is 198 M⁻¹ s⁻¹. The affinity at human STING (SPR), expressed as Kd, was 3.7 µM.

The Kd is the constant that tells how readily two partners part at equilibrium. Lower therefore signals higher affinity.
